According to PubChem BioAssay (NCI):
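Protocol summary: plate cells (96-well), add compound at 5 concentrations, incubate 48 h, interpolate endpoints linearly. TGI: total growth inhibition.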

Assays:
Test in all cases: NCI tumour cell line growth inhibition, 48 h
TK-10 renal = system: TK-10 renal
M14 melanoma = system: M14 melanoma
CAKI-1 renal = system: CAKI-1 renal
HOP-92 NSCLC = system: HOP-92 NSCLC
HOP-62 NSCLC = system: HOP-62 NSCLC
A498 renal = system: A498 renal
U251 CNS = system: U251 CNS
OVCAR-4 ovarian = system: OVCAR-4 ovarian
BT-549 breast = system: BT-549 breast
MCF7 breast = system: MCF7 breast
KM12 colon = system: KM12 colon
DU-145 prostate = system: DU-145 prostate
HCT-116 colon = system: HCT-116 colon
HL-60(TB) leukemia = system: HL-60(TB) leukemia
RPMI-8226 leukemia = system: RPMI-8226 leukemia
SNB-75 CNS = system: SNB-75 CNS
SF-295 CNS = system: SF-295 CNS
SNB-19 CNS = system: SNB-19 CNS
A549 NSCLC = system: A549 NSCLC
OVCAR-5 ovarian = system: OVCAR-5 ovarian
SW-620 colon = system: SW-620 colon
786-0 renal = system: 786-0 renal
PC-3 prostate = system: PC-3 prostate
SK-MEL-28 melanoma = system: SK-MEL-28 melanoma
MDA-N = system: MDA-N
SN12C renal = system: SN12C renal
HT29 colon = system: HT29 colon
NCI-H460 lung = system: NCI-H460 lung
HS 578T breast = system: HS 578T breast
UO-31 renal = system: UO-31 renal
IGROV1 ovarian = system: IGROV1 ovarian
NCI-H226 lung = system: NCI-H226 lung
EKVX NSCLC = system: EKVX NSCLC
MOLT-4 leukemia = system: MOLT-4 leukemia
MDA-MB-231 breast = system: MDA-MB-231 breast
NCI-H522 lung = system: NCI-H522 lung
SF-539 CNS = system: SF-539 CNS
HCT-15 colon = system: HCT-15 colon
SR leukemia = system: SR leukemia
SK-OV-3 ovarian = system: SK-OV-3 ovarian
OVCAR-8 ovarian = system: OVCAR-8 ovarian
LOX IMVI melanoma = system: LOX IMVI melanoma
UACC-257 melanoma = system: UACC-257 melanoma
OVCAR-3 ovarian = system: OVCAR-3 ovarian
COLO 205 colon = system: COLO 205 colon
SF-268 CNS = system: SF-268 CNS
T-47D breast = system: T-47D breast
SK-MEL-2 melanoma = system: SK-MEL-2 melanoma
NCI/ADR-RES ovarian = system: NCI/ADR-RES ovarian
SK-MEL-5 melanoma = system: SK-MEL-5 melanoma
NCI-H23 lung = system: NCI-H23 lung
RXF 393 renal = system: RXF 393 renal
MDA-MB-435 = system: MDA-MB-435
K-562 leukemia = system: K-562 leukemia
ACHN renal = system: ACHN renal
HCC-2998 colon = system: HCC-2998 colon
UACC-62 melanoma = system: UACC-62 melanoma
CCRF-CEM leukemia = system: CCRF-CEM leukemia

C=C1CC2(CCOc3ccc(Cl)cc32)OC1=O (stereo not drawn)
TGI (TK-10 renal): 17.5 µM | TGI (M14 melanoma): 11.1 µM | TGI (CAKI-1 renal): 15.4 µM | TGI (HOP-92 NSCLC): 12.4 µM | TGI (HOP-62 NSCLC): 22.7 µM | TGI (A498 renal): 30.2 µM | TGI (U251 CNS): 22.5 µM | TGI (OVCAR-4 ovarian): 4.33 µM | TGI (BT-549 breast): 2.75 µM | TGI (MCF7 breast): 6.16 µM | TGI (KM12 colon): 28 µM | TGI (DU-145 prostate): 27.4 µM | TGI (HCT-116 colon): 6.98 µM | TGI (HL-60(TB) leukemia): 8.84 µM | TGI (RPMI-8226 leukemia): 9.35 µM | TGI (SNB-75 CNS): 16.3 µM | TGI (SF-295 CNS): 21.5 µM | TGI (SNB-19 CNS): 32.6 µM | TGI (A549 NSCLC): 29.3 µM | TGI (OVCAR-5 ovarian): 23.4 µM | TGI (SW-620 colon): 5.44 µM | TGI (786-0 renal): 7.13 µM | TGI (PC-3 prostate): 10.6 µM | TGI (SK-MEL-28 melanoma): 23.3 µM | TGI (MDA-N): 17.9 µM | TGI (SN12C renal): 22.1 µM | TGI (HT29 colon): 24.2 µM | TGI (NCI-H460 lung): 12.6 µM | TGI (HS 578T breast): 23.4 µM | TGI (UO-31 renal): 11.2 µM | TGI (IGROV1 ovarian): 21.2 µM | TGI (NCI-H226 lung): 11.2 µM | TGI (EKVX NSCLC): 21.5 µM | TGI (MOLT-4 leukemia): 8.29 µM | TGI (MDA-MB-231 breast): 20.1 µM | TGI (NCI-H522 lung): 3.42 µM | TGI (SF-539 CNS): 0.976 µM | TGI (HCT-15 colon): 4.26 µM | TGI (SR leukemia): 12.2 µM | TGI (SK-OV-3 ovarian): 26.2 µM | TGI (OVCAR-8 ovarian): 16.5 µM | TGI (LOX IMVI melanoma): 8.88 µM | TGI (UACC-257 melanoma): 20.1 µM | TGI (OVCAR-3 ovarian): 7.52 µM | TGI (COLO 205 colon): 6.16 µM | TGI (SF-268 CNS): 16.1 µM | TGI (T-47D breast): 32.3 µM | TGI (SK-MEL-2 melanoma): 6.29 µM | TGI (NCI/ADR-RES ovarian): 24.6 µM | TGI (SK-MEL-5 melanoma): 14.2 µM | TGI (NCI-H23 lung): 19.5 µM | TGI (RXF 393 renal): 10.7 µM | TGI (MDA-MB-435): 14.1 µM | TGI (K-562 leukemia): > 31.5 µM | TGI (ACHN renal): 15.4 µM | TGI (HCC-2998 colon): 40.3 µM | TGI (UACC-62 melanoma): 26.1 µM | TGI (CCRF-CEM leukemia): 53 µM
